Entries after “also recorded” stand apart in the source; their conditions may differ.
Columns and labels:
Miscibility with water = assay type: physicochemical; conditions: this work
GR = molecular target: T1, GR (Homo sapiens, UniProt P04150); assay: GR-anti CALUX reporter gene assay (antagonistic mode); assay type: cell-based; set-up: key: –: no effect observed up to the highest test concentration; conditions: PC20, 24 h exposure
T1 construct: expression construct for the full-length human receptor under investigation; expressed in transfected cells; host or cells: human U2-OS cells (ATCC HTB-96), stably transfected
T1 sequence (P04150 1-777): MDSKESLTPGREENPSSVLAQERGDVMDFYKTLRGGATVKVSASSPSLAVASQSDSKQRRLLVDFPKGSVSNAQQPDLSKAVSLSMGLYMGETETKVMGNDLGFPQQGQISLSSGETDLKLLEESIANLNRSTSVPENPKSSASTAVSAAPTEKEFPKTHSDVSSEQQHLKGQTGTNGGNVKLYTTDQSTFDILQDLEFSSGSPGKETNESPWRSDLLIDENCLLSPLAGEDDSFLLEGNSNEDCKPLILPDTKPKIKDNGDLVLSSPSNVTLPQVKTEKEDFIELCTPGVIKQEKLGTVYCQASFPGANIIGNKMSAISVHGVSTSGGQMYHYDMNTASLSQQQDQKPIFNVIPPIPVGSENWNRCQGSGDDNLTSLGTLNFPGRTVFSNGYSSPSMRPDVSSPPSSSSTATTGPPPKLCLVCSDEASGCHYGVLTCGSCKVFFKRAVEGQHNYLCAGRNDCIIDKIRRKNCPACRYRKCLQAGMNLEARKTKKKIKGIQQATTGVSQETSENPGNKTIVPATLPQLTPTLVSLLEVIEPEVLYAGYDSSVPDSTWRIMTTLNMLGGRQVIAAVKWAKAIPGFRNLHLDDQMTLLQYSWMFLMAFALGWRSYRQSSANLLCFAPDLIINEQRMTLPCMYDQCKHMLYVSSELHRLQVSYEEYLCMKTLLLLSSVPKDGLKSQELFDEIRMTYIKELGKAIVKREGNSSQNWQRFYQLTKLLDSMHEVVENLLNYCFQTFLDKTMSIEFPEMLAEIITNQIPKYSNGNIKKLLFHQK
Description: nitroaniline ≥98.0% was purchased from Alfa Aeser. Cyrene was supplied by Circa group. N-butylpyrrolidinone was supplied by Eastman chemicals. […]
Polyarylethersulfone of 55,000 Da were obtained from INGE.BASF, Germany. The CALUX cell lines have been described previously.[1] They are based on human U2-OS cells (ATCC, HTB-96) stably transfected with an expression construct for the full-length human receptor under investigation, and a reporter construct consisting of multimerized responsive elements for the cognate receptor coupled to a minimal promoter element (TATA) and a luciferase gene. Cells were maintained as described previously,[2] using cell culture media and supplements from Fisher Scientific as described in the experimental procedures section. […]
In vitro reporter gene assays
The automated CALUX assays were carried out similarly as described earlier,[12] with some adaptations. In brief, the assay was performed in CO2 independent medium (Fisher Scientific, […]
with 30 µl cell suspension/well. After 24 h, exposure medium was prepared. A dilution series in 0.5log unit increments of each test compound (in DMSO) was added to a 96-wells plate containing assay medium (2% v/v). Of this exposure mixture, 30 µl was added to the assay plates containing the CALUX cells, resulting in a final DMSO concentration of 1%. Additionally, DMSO blanks and a full dose response curve of the relevant reference compound were included on each plate. All samples were tested in triplicate. The preparation of the compound dilution series as well as the exposure of the cells were performed on a Hamilton StarLET liquid handling robot coupled to a Cytomat incubator.
Directly after exposure, plates were sealed with non-breathing plate seals (Plate sealer, easy seal […]
After 24 h the exposure medium was removed using an EL406 washer-dispenser (BioTek) and 10 µl/well triton lysisbuffer was added by the EL406.
Subsequently, the luciferase signal was measured in a luminometer (InfinitePro coupled to a Connect Stacker, both TECAN). In order to be able to detect receptor antagonism, several assays were also performed in antagonistic mode. The assay procedure was as described above, with the only exception that the EC50 concentration of the reference agonist was present during the exposure.
The luminometer data was analysed as follows; the average of the triplicate wells was determined, […]

Compound | Water misc. (Miscibility with water) | LEC GR‐anti (GR)
CCCCN(CC)C(=O)CCC(=O)N(CC)CCCC [EBSA, N,N′‐diethyl‐N,N′‐dibutylsuccindiamide] | no^[a] | –
CCCCN(C)C(=O)CCC(=O)N(C)CCCC [MBSA, N,N′‐dimethyl‐N,N′‐dibutylsuccindiamide] | no^[a] | –

Further lines, results first:

Water misc. (Miscibility with water) | LEC GR‐anti (GR) | Compound
yes^[a] |  | CN1CCCC1=O [NMP, N‐methyl‐2‐pyrrolidone, reference compound]
no^[a] | – | CCCCN(CCCC)C(=O)CCC(=O)N(CCCC)CCCC [TBSA, N,N,N′,N′‐tetrabutylsuccindiamide]
miscible; also recorded: yes^[a] | – | CCCCN1CCCC1=O [NBP, N‐Butylpyrrolidinone, reference compound]

Source: paper PMC7318222, “A Family of Water‐Immiscible, Dipolar Aprotic, Diamide Solvents from Succinic Acid” (Chemsuschem, 2020)
